Assay results: patent publication US12612358B2, “Resorcinol-based compounds and uses thereof” (priority 2020, dated 2026)

Columns and labels:
[1] = tested on: MDA-MB231 D3H; experiment: CellTiter-Glo viability/proliferation assay, MDA-MB231 breast cancer cells; type: cell-based; details: Homo sapiens, MDA-MB-231, 48 h; CellTiter-Glo, two-day treatment; read-out: Inhibition of MDA-MB231 D3H
[2] = tested on: PANC-1; experiment: CellTiter-Glo cell proliferation, PANC-1 pancreatic cancer cells; type: cell-based, human
Text: (§1) Cell culture and treatment of pancreatic cancer cell lines: Pancreatic cancer cells lines BxPC-3, SW1990, and PANC-1 used in the experiments presented herein can be obtained from ATCC. The cells can be cultured and passaged in complete growth medium (RPMI-1640, Dulbecco's Modified Eagle Medium, or Leibovitz's L-15 medium) that has been supplemented with fetal bovine serum to a final concentration of 10%.
Effects of Compound-5B on proliferation and Id-1 expression in pancreatic cell lines. Compound-5B was next tested for inhibition of cell viability/proliferation in the three pancreatic cancer cell lines and two primary patient-derived cancer cell lines. Compound-5B inhibited cell viability/proliferation of all the cancer cell lines (Table 2). The culturing condition for the pancreatic cell lines was similar to those used in the breast cancer lines, with the exception of the primary patient-derived pancreatic cancer cell lines (PANC9 and PANC13). For determining inhibition of cell proliferation in patient-derived pancreatic cancer cells were cultured in a T75 ultra low attachment flasks with DMEM/F12 media supplemented with B27, penicillin/streptomycin (10,000 u/mL), 50 µg/mL human epidermal growth factor (hEGF), 50 μg/mL human fibroblast growth factor, and 5 μg/mL heparin. Cells were plated in a 384-well plate and incubated for three days to promote the formation of tumorspheres. Cells were then treated with Compound-5B for three days. Cell proliferation of pancreatic cells in the presence of drug was measured using the CellTiter-Glo luminescent Assay and IC50 values were calculated (Table 2). The IC50 and corresponding 95% confidence limits (CL) were calculated using non-linear regression analysis.

[3] = tested on: BXPC-3; experiment: CellTiter-Glo cell proliferation, BxPC-3 pancreatic cancer cells; type: cell-based; details: Homo sapiens, read-out: IC50 category
Text: as §1
Effects of Compound-5B on proliferation and Id-1 expression in pancreatic cell lines. Compound-5B was next tested for inhibition of cell viability/proliferation in the three pancreatic cancer cell lines and two primary patient-derived cancer cell lines. Compound-5B inhibited cell viability/proliferation of all the cancer cell lines (Table 2). The culturing condition for the pancreatic cell lines was similar to those used in the breast cancer lines, with the exception of the primary patient-derived pancreatic cancer cell lines (PANC9 and PANC13). […] Cell proliferation of pancreatic cells in the presence of drug was measured using the CellTiter-Glo luminescent Assay and IC50 values were calculated (Table 2). […]

[4] = tested on: Kasumi −1 (leukemia); experiment: Cell proliferation, Kasumi-1 leukemia cells; type: cell-based; details: Homo sapiens, read-out: IC50 category
Text: Effects of Compound-5B on cell proliferation in additional cancer cells: To determine whether Compound-5B would have broad based anticancer activity, we study whether Compound-5B would be effective at inhibiting cell proliferation in a variety of cancers overexpressing Id-1. The assay conditions used were identical to those presented for breast and pancreatic cancers. Indeed, Compound-5B was potent at inhibiting cell proliferation in blood cancer (leukemia), glioblastoma, prostate, and ovarian cancer.

[5] = tested on: Id-1; experiment: Id-1 expression in primary patient-derived BRC25 cells; type: cell-based, human
Procedure: (§2) Quantitative Western analysis: Cells are cultured and treated in 6-well dishes. After the cells are washed twice with cold PBS, lysis buffer is added. The cells are then lysed by freezing for 10 min at −70° C. and then thawing at ambient temperature. The cell lysate is collected and the protein content is determined by using Bradford reagent. Equal amounts of protein are heated at 90° C. in Laemmli sample buffer which also included β-mercaptoethanol. The samples are then loaded onto a precast SDS-PAGE gel (Bio-Rad Laboratories, Hercules, CA). After which, proteins are then electroblotted onto an Immobilon membrane (Millipore, Billerica, MA) overnight at 2-4° C. The membrane is then blocked for 1 hour with 5% nonfat dry milk which included TBS+Tween. The membranes are then incubated with an anti-Id-1 primary antibody, and then an appropriate secondary antibody was used. Blots are incubated for 45 min and then washed 4 times with TBS+Tween for 15 min each. […]
Effects of Compound-5B on breast cancer cell proliferation, Id-1 expression and invasion in culture. […] The ability of the cells to migrate and invade in modified Boyden chambers was determined. The percentage relative invasion was calculated as the effect on treated cells/vehicle cells×100. […]

[6] = tested on: Id-1; experiment: Id-1 expression in PANC-1 cells (Western analysis); type: cell-based, human
Procedure: as §2, with “each. The blots are developed with SuperSignal Femto (Pierce, Rockford, IL), and imaged on either a Fluorchem 8900 (Alpha Innotech, San Leandro, CA) or ECL Hyperfilm (Amersham-Pharmacia, Piscataway, NJ). Band intensity values are obtained (after background subtraction) directly from the […] using AlphaeaseFC software (San Leandro, CA) or from film using Image-J (NIH, MD).” for “each.”

[7] = tested on: MDA-MB231 cells; experiment: Invasion in modified Boyden chambers, MDA-MB231 cells; type: cell-based, human
Procedure: Effects of Compound-5B on breast cancer cell proliferation, Id-1 expression and invasion in culture. […] The ability of the cells to migrate and invade in modified Boyden chambers was determined. The percentage relative invasion was calculated as the effect on treated cells/vehicle cells×100. Respective controls (vehicle treated cells) were set as 100%.

[8] = tested on: MDA-MB231 breast cancer cells; experiment: Combination with paclitaxel, viability of MDA-MB231 cells (combination index); type: cell-based, human; details: combination with paclitaxel at optimal combined ratios
Procedure: Concentration-response curves were generated for Compound-5B and paclitaxel alone and in combination (FIG. 2C). The inhibitory values from the concentration response curves were used to calculate combination index (CI) values at multiple combination ratios (FIG. 3A). Methods: Multiple viability assays in a 384 well format were run for each compound and the average percent inhibition of cell viability was calculated and transformed to fraction affected (Fa) e.g., percent inhibitory effect. CI values were calculated using Compusyn software (FIG. 3B). After determining the (IC50/Fa 0.5) values of the drugs individually (C), components were then combined at specific concentration ranges (FIG. 3B) and a combination index was calculated where CI<1, =1, and >1 indicate synergism, additive effect, and antagonism, respectively.

[9] = Mouse liver microsome stability (Eurofins ADME); type: in vitro ADME
Procedure: (§3) Evaluating ADME of Compound-5B in vitro. It is important to evaluate ADME first in culture as it allows for the selection of the best candidate for PK analysis in vivo. ADME analysis of Compound-5B was performed by Eurofins.

[10] = Plasma protein binding (Eurofins ADME); type: in vitro ADME
Procedure: as §3

[11] = tested on: CYP450 isoforms; experiment: CYP450 isoform inhibition; type: in vitro ADME; details: 1 μM
Procedure: as §3

[12] = target: T1, ADRB1 (β-Adrenergic receptor) (Homo sapiens, UniProt P08588); experiment: SAFETY scan E/IC50 ELECT, ADRB1; type: biochemical; details: read-out: inhibition against ADRB1 (mild)
T1 construct: purchased Eurofin's
T1 sequence (P08588 whole entry): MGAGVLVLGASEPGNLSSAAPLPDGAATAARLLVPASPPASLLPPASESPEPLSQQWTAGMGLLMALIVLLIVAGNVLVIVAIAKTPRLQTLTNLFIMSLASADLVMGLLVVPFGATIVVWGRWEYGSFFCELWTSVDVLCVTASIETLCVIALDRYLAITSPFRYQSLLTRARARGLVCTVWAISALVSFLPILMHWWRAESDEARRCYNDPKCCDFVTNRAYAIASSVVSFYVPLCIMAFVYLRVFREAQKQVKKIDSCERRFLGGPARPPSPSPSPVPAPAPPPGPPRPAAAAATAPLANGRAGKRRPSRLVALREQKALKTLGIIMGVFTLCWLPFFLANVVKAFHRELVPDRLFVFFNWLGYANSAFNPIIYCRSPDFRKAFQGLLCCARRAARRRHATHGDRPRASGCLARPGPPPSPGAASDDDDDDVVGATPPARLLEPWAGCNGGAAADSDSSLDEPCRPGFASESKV

[13] = target: T2, HRH2 (Histamine receptor) (Homo sapiens, UniProt P25021); experiment: SAFETY scan E/IC50 ELECT, HRH2; type: biochemical; details: read-out: inhibition against HRH2 (mild)
T2 construct: purchased Eurofin's
T2 sequence (P25021 whole entry): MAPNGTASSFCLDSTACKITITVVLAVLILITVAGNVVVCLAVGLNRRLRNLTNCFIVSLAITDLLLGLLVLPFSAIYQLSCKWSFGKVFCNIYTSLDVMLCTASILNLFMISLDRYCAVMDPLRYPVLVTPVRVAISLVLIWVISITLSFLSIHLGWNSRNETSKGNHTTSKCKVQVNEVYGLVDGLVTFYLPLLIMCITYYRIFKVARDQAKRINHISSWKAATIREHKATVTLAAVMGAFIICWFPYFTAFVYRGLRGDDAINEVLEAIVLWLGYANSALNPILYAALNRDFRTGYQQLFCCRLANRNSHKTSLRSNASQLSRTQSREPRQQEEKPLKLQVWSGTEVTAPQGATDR

[14] = tested on: 468 kinases; experiment: Eurofin's Kinome scan assay; details: 1 μM and 10 μM
Procedure: (§4) Eurofin's Kinome scan assay was used to screen Compound-5B against 468 kinases at 1 μM and 10 μM concentrations. […] In order to understand any potential pharmacological cross reactivity, a known contributor to clinical adverse drug reactions Compound-5B was tested in SAFETY scan E/IC50 ELECT.

[15] = tested on: cannabinoid receptors; experiment: Cannabinoid receptor binding
Procedure: as §4

CCCCCCC(C)(C)c1cc(O)c(C(=O)Nc2ccccc2)c(O)c1 [Compound 5B, 2,6-dihydroxy-4-(2-methyloctan-2-yl)-N-phenylbenzamide]
IC50 [1]: < 0.5 µM
IC50 ([2]; Homo sapiens, PANC-1, read-out: IC50 category): < 0.5 µM
improvement in potency (IC50) compared to the parent compound CBD ([2]; PANC-1 (by context)): 38 fold
IC50 [3]: 1 to 5 µM
IC50 [4]: < 0.5 µM
inhibition of Id-1 expression [5]: significant potency
inhibition of Id-1 expression [6]: able to effectively inhibit Id-1 expression
invasion of MDA-MB231 cells [7]: inhibits the invasion
effect on paclitaxel inhibition of cell viability [8]: can enhance the ability of paclitaxel to inhibit the viability
clearance (microsomal stability assays) [9]: acceptable
half-life (microsomal stability assays) [9]: acceptable
stability in mouse liver microsomes [9]: good
plasma protein binding [10]: high
inhibition of important CYP450 isoforms [11]: does not inhibit
IC50 [12]: 0.64 to 0.75 µM
IC50 [13]: 0.64 to 0.75 µM
inhibition of 468 kinases [14]: No significant inhibition
binding to the cannabinoid receptors [15]: does not bind
